PubChem BioAssay (NCI)
Where “and” joins values, the source holds several entries; their conditions need not be identical. Equal values may be shown once.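 Method: 48-hour compound exposure of cells in 96-well plates, five concentrations, linear interpolation of endpoints. GI50 marks 50% less growth. TGI marks complete inhibition of growth.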

How the values were obtained:
Assay in all cases: DTP human tumour cell line panel, 48 h
SK-MEL-28 melanoma = tested on: SK-MEL-28 melanoma
SK-MEL-2 melanoma = tested on: SK-MEL-2 melanoma
A498 renal = tested on: A498 renal
MOLT-4 leukemia = tested on: MOLT-4 leukemia
LXFL 529 NSCLC = tested on: LXFL 529 NSCLC
U251 CNS = tested on: U251 CNS
KM12 colon = tested on: KM12 colon
DMS 114 small cell lung = tested on: DMS 114 small cell lung
K-562 leukemia = tested on: K-562 leukemia
M14 melanoma = tested on: M14 melanoma
EKVX NSCLC = tested on: EKVX NSCLC
CCRF-CEM leukemia = tested on: CCRF-CEM leukemia
SF-539 CNS = tested on: SF-539 CNS
IGROV1 ovarian = tested on: IGROV1 ovarian
TK-10 renal = tested on: TK-10 renal
HOP-18 NSCLC = tested on: HOP-18 NSCLC
A549 NSCLC = tested on: A549 NSCLC
NCI-H226 lung = tested on: NCI-H226 lung
UO-31 renal = tested on: UO-31 renal
DLD-1 colon = tested on: DLD-1 colon
UACC-62 melanoma = tested on: UACC-62 melanoma
SF-268 CNS = tested on: SF-268 CNS
OVCAR-8 ovarian = tested on: OVCAR-8 ovarian
SR leukemia = tested on: SR leukemia
HCT-15 colon = tested on: HCT-15 colon
OVCAR-5 ovarian = tested on: OVCAR-5 ovarian
OVCAR-4 ovarian = tested on: OVCAR-4 ovarian
SNB-78 CNS = tested on: SNB-78 CNS
786-0 renal = tested on: 786-0 renal
CAKI-1 renal = tested on: CAKI-1 renal
SK-MEL-5 melanoma = tested on: SK-MEL-5 melanoma
ACHN renal = tested on: ACHN renal
RXF 393 renal = tested on: RXF 393 renal
DMS 273 small cell lung = tested on: DMS 273 small cell lung
SNB-19 CNS = tested on: SNB-19 CNS
HOP-92 NSCLC = tested on: HOP-92 NSCLC
KM20L2 colon = tested on: KM20L2 colon
HOP-62 NSCLC = tested on: HOP-62 NSCLC
OVCAR-3 ovarian = tested on: OVCAR-3 ovarian
NCI-H460 lung = tested on: NCI-H460 lung
HT29 colon = tested on: HT29 colon
MALME-3M melanoma = tested on: MALME-3M melanoma
SW-620 colon = tested on: SW-620 colon
HL-60(TB) leukemia = tested on: HL-60(TB) leukemia
M19-MEL melanoma = tested on: M19-MEL melanoma
XF 498 CNS = tested on: XF 498 CNS
RPMI-8226 leukemia = tested on: RPMI-8226 leukemia
NCI-H522 lung = tested on: NCI-H522 lung
HCC-2998 colon = tested on: HCC-2998 colon
SF-295 CNS = tested on: SF-295 CNS
NCI-H23 lung = tested on: NCI-H23 lung
COLO 205 colon = tested on: COLO 205 colon
LOX IMVI melanoma = tested on: LOX IMVI melanoma
SK-OV-3 ovarian = tested on: SK-OV-3 ovarian
HCT-116 colon = tested on: HCT-116 colon
UACC-257 melanoma = tested on: UACC-257 melanoma
SN12C renal = tested on: SN12C renal
SNB-75 CNS = tested on: SNB-75 CNS

With `COc1cc2c(c(OC)c1OC)-c1ccc(SC)c(=O)cc1C(CC(=O)Oc1ccc(F)cc1)C2` (centres undefined) the TGI (SK-MEL-28 melanoma) was greater than 100 µM, the GI50 (SK-MEL-2 melanoma) was 449 nM and the TGI (SK-MEL-2 melanoma) was 0.91 µM and 4.17 µM. For the same compound, the GI50 (A498 renal) was 43.2 nM, the GI50 (MOLT-4 leukemia) was 518 nM and the TGI (MOLT-4 leukemia) was 27.7 µM and > 100 µM. The GI50 (LXFL 529 NSCLC) was 507 nM, the GI50 (U251 CNS) was 410 nM and the TGI (U251 CNS) was 1410 nM and 2350 nM. It also gave a TGI (KM12 colon) of 2370 nM, a GI50 (DMS 114 small cell lung) of 32.5 nM and a GI50 (K-562 leukemia) of 351 nM. For the same compound, the TGI (K-562 leukemia) was 75 µM and > 100 µM, the TGI (M14 melanoma) was 14.4 µM and the GI50 (EKVX NSCLC) was 981 nM. For the same compound, the TGI (EKVX NSCLC) was 75 µM and > 100 µM, the GI50 (CCRF-CEM leukemia) was 367 nM and the TGI (CCRF-CEM leukemia) was 27.5 µM and > 100 µM. The TGI (SF-539 CNS) was 656 nM, the GI50 (IGROV1 ovarian) was 293 nM and the TGI (IGROV1 ovarian) was 75 µM and > 100 µM. For the same compound, the GI50 (TK-10 renal) was 21.5 µM, the TGI (TK-10 renal) was 75 µM and > 100 µM and the GI50 (HOP-18 NSCLC) was greater than 100 µM. The TGI (HOP-18 NSCLC) was 75 µM and > 100 µM, the GI50 (A549 NSCLC) was 391 nM and the GI50 (NCI-H226 lung) was 201 nM. The TGI (NCI-H226 lung) was 612 nM and 677 nM, the GI50 (UO-31 renal) was 2490 nM and the TGI (UO-31 renal) was 75 µM and > 100 µM. For the same compound, the TGI (DLD-1 colon) was 75 µM and 10.1 µM, the GI50 (UACC-62 melanoma) was 50.9 nM and the TGI (UACC-62 melanoma) was 730 nM and 539 nM. For the same compound, the GI50 (SF-268 CNS) was 461 nM, the TGI (SF-268 CNS) was 75 µM and 15 µM and the GI50 (OVCAR-8 ovarian) was 280 nM. For the same compound, the GI50 (SR leukemia) was 124 nM, the TGI (SR leukemia) was 3.14 µM and 24 µM and the GI50 (HCT-15 colon) was 384 nM. The TGI (HCT-15 colon) was 989 nM and 2860 nM, the GI50 (OVCAR-5 ovarian) was 973 nM and the TGI (OVCAR-5 ovarian) was 75 µM and > 100 µM. For the same compound, the GI50 (OVCAR-4 ovarian) was 5.4 µM, the TGI (OVCAR-4 ovarian) was 75 µM and > 100 µM and the GI50 (SNB-78 CNS) was 89.1 nM. For the same compound, the TGI (SNB-78 CNS) was 75 µM and 73.6 µM, the GI50 (786-0 renal) was 325 nM and the TGI (786-0 renal) was 75 µM and > 100 µM. For the same compound, the GI50 (CAKI-1 renal) was 1900 nM, the TGI (CAKI-1 renal) was 10 µM and > 100 µM and the GI50 (SK-MEL-5 melanoma) was 293 nM. The TGI (SK-MEL-5 melanoma) was 1.1 µM and 3.38 µM, the GI50 (ACHN renal) was 587 nM and the TGI (ACHN renal) was 75 µM and > 100 µM. For the same compound, the GI50 (RXF 393 renal) was 42.6 nM, the GI50 (DMS 273 small cell lung) was 262 nM and the GI50 (SNB-19 CNS) was 960 nM. The TGI (SNB-19 CNS) was 75 µM and > 100 µM, the GI50 (HOP-92 NSCLC) was 1910 nM and the TGI (HOP-92 NSCLC) was 75 µM and 97.7 µM. For the same compound, the GI50 (KM20L2 colon) was 189 nM, the TGI (KM20L2 colon) was 239 nM and 363 nM and the GI50 (HOP-62 NSCLC) was 410 nM. For the same compound, the TGI (HOP-62 NSCLC) was 54.6 µM and 49.6 µM, the TGI (OVCAR-3 ovarian) was 608 nM and the GI50 (NCI-H460 lung) was 346 nM. The TGI (NCI-H460 lung) was 1830 nM and 1140 nM, the GI50 (HT29 colon) was 258 nM and the TGI (HT29 colon) was 392 nM and 675 nM. The TGI (MALME-3M melanoma) was 75 µM and > 100 µM, the GI50 (SW-620 colon) was 358 nM and the TGI (SW-620 colon) was 11.1 µM and > 100 µM. For the same compound, the TGI (HL-60(TB) leukemia) was 768 nM, the GI50 (M19-MEL melanoma) was 338 nM and the TGI (M19-MEL melanoma) was 14.1 µM and 23.1 µM. For the same compound, the GI50 (XF 498 CNS) was 442 nM, the TGI (XF 498 CNS) was 7.03 µM and 5.13 µM and the TGI (RPMI-8226 leukemia) was 12.2 µM and 11 µM. For the same compound, the GI50 (NCI-H522 lung) was 217 nM, the TGI (NCI-H522 lung) was 310 nM and 610 nM and the GI50 (HCC-2998 colon) was 161 nM. The TGI (HCC-2998 colon) was 325 nM and 460 nM, the GI50 (SF-295 CNS) was 286 nM and the TGI (SF-295 CNS) was 75 µM and > 100 µM. For the same compound, the GI50 (NCI-H23 lung) was 287 nM, the TGI (NCI-H23 lung) was 667 nM and 1040 nM and the GI50 (COLO 205 colon) was 307 nM. For the same compound, the TGI (COLO 205 colon) was 305 nM and 1030 nM, the GI50 (LOX IMVI melanoma) was 392 nM and the TGI (LOX IMVI melanoma) was 8.26 µM and 10.8 µM. The GI50 (SK-OV-3 ovarian) was 40 nM, the TGI (SK-OV-3 ovarian) was 24.9 µM and 11.6 µM and the GI50 (HCT-116 colon) was 323 nM. For the same compound, the TGI (HCT-116 colon) was 306 nM and 1080 nM, the GI50 (UACC-257 melanoma) was 264 nM and the TGI (UACC-257 melanoma) was 75 µM and > 100 µM. The TGI (SN12C renal) was 20.2 µM and 7.79 µM.
With `COc1cc2c[n+](C)c3c4cc(OC)c(OC)cc4c(OCCCCCCCCOc4cc5c6cc(OC)c(OC)cc6c[n+](C)c5c5cc(OC)c(OC)cc45)cc3c2cc1OC` the TGI (SK-MEL-28 melanoma) was greater than 100 µM, the TGI (SK-MEL-2 melanoma) was greater than 100 µM and the TGI (A498 renal) was greater than 100 µM. It also gave a TGI (MOLT-4 leukemia) greater than 100 µM, a TGI (LXFL 529 NSCLC) greater than 100 µM and a TGI (U251 CNS) greater than 100000 nM. It also gave a TGI (KM12 colon) greater than 100000 nM, a TGI (DMS 114 small cell lung) greater than 100 µM and a TGI (K-562 leukemia) greater than 100 µM. It also gave a TGI (M14 melanoma) greater than 100 µM, a TGI (EKVX NSCLC) greater than 100 µM and a TGI (CCRF-CEM leukemia) greater than 100 µM. It also gave a TGI (SF-539 CNS) greater than 100000 nM, a TGI (IGROV1 ovarian) greater than 100 µM and a TGI (TK-10 renal) greater than 100 µM. It also gave a TGI (HOP-18 NSCLC) greater than 100 µM, a TGI (A549 NSCLC) greater than 100 µM and a TGI (NCI-H226 lung) greater than 100000 nM. For the same compound, the TGI (UO-31 renal) was greater than 100 µM, the TGI (DLD-1 colon) was greater than 100 µM and the TGI (UACC-62 melanoma) was greater than 100000 nM. It also gave a TGI (SF-268 CNS) greater than 100 µM, a TGI (OVCAR-8 ovarian) greater than 100 µM and a TGI (SR leukemia) greater than 100 µM. The TGI (HCT-15 colon) was greater than 100000 nM, the TGI (OVCAR-5 ovarian) was greater than 100 µM and the TGI (OVCAR-4 ovarian) was greater than 100 µM. It also gave a TGI (SNB-78 CNS) greater than 100 µM, a TGI (786-0 renal) greater than 100 µM and a TGI (CAKI-1 renal) greater than 100 µM. For the same compound, the TGI (SK-MEL-5 melanoma) was greater than 100 µM, the TGI (ACHN renal) was greater than 100 µM and the TGI (RXF 393 renal) was greater than 100 µM. The TGI (DMS 273 small cell lung) was greater than 100 µM, the TGI (SNB-19 CNS) was 66.3 µM and the TGI (HOP-92 NSCLC) was greater than 100 µM. It also gave a TGI (KM20L2 colon) greater than 100000 nM, a TGI (HOP-62 NSCLC) greater than 100 µM and a TGI (OVCAR-3 ovarian) greater than 100000 nM. For the same compound, the TGI (NCI-H460 lung) was greater than 100000 nM, the TGI (HT29 colon) was greater than 100000 nM and the TGI (MALME-3M melanoma) was greater than 100 µM. The TGI (SW-620 colon) was greater than 100 µM, the TGI (HL-60(TB) leukemia) was greater than 100000 nM and the TGI (M19-MEL melanoma) was greater than 100 µM. It also gave a TGI (XF 498 CNS) greater than 100 µM, a TGI (RPMI-8226 leukemia) greater than 100 µM and a TGI (NCI-H522 lung) greater than 100000 nM. The TGI (HCC-2998 colon) was greater than 100000 nM, the TGI (SF-295 CNS) was greater than 100 µM and the TGI (NCI-H23 lung) was greater than 100000 nM. It also gave a TGI (SNB-75 CNS) greater than 100 µM, a TGI (LOX IMVI melanoma) greater than 100 µM and a TGI (SK-OV-3 ovarian) greater than 100 µM. For the same compound, the TGI (HCT-116 colon) was greater than 100000 nM, the TGI (UACC-257 melanoma) was greater than 100 µM and the TGI (SN12C renal) was greater than 100 µM.
